According to patent publication US9801374B2, “Active compound combinations comprising carboxamide derivatives” (BAYER CROPSCIENCE AG, priority 2012, dated 2017):

Columns and labels:
Leptosphaeria nodorum = Leptosphaeria nodorum test (wheat) / preventive; type: in vivo, Leptosphaeria nodorum on wheat; settings: evaluated 8 days after inoculation
Experimental: (§1) • Solvent: 49 parts by weight of N,N-dimethylacetamide • Emulsifier: 1 part by weight of alkylaryl polyglycol ether
(§2) To produce a suitable preparation of active compound, 1 part by weight of active compound or active compound combination is mixed with the stated amounts of solvent and emulsifier, and the concentrate is diluted with water to the desired concentration.
(§3) To test for preventive activity, young plants are sprayed with the preparation of active compound or active compound combination at the stated rate of application.
After the spray coating has been dried, the plants are sprayed with a spore suspension of Leptosphaeria nodorum. The plants remain for 48 hours in an incubation cabinet at approximately 20° C. and a relative atmospheric humidity of approximately 100%.
The plants are placed in the greenhouse at a temperature of approximately 22° C. and a relative atmospheric humidity of approximately 80%.
The test is evaluated 8 days after the inoculation. 0% means an efficacy which corresponds to that of the untreated control, while an efficacy of 100% means that no disease is observed.

[1] = test system: Blumeria graminis f.sp. hordei; assay: Blumeria test (barley) / preventive; type: in vivo, Blumeria graminis f.sp. hordei on barley; settings: evaluated 7 days after inoculation
Experimental: as §1, §2, §3
After the spray coating has been dried, the plants are dusted with spores of Blumeria graminis f.sp. hordei.
The plants are placed in the greenhouse at a temperature of approximately 18° C. and a relative atmospheric humidity of approximately 80% to promote the development of mildew pustules.
The test is evaluated 7 days after the inoculation. 0% means an efficacy which corresponds to that of the untreated control, while an efficacy of 100% means that no disease is observed.

| Compound | Efficacy in % found (Leptosphaeria nodorum; 25 ppm a.i.) [%] | Efficacy in % found ([1]; 5 ppm a.i.) [%] | further results |
| --- | --- | --- | --- |
| CCOC(=O)C1=NN(c2ccc(Cl)cc2Cl)C(C)(C(=O)OCC)C1 [(D-23), mefenpyr-diethyl] | 17 | – | – |
| CCOC(=O)C1=NOC(c2ccccc2)(c2ccccc2)C1 [(D-19), isoxadifen-ethylen] | 17 | – | – |
| O=C(O)CNCP(=O)(O)O [(B-14.1), glyphosate] | – | 11 | – |
| CC(C)c1ccc(Cl)cc1CN(C(=O)c1c(C(F)F)nn(C)c1F)C1CC1 [compound A5, N-(5-chloro-2-isopropylbenzyl)-N-cyclopropyl-3-(difluoromethyl)-5-fluoro-1-methyl-1H-pyrazole-4-carboxamide] | – | – | Efficacy in % found ([1]; 62.5 ppm a.i.): 56%; Efficacy in % found (Leptosphaeria nodorum; 31 ppm a.i.): 50% |
| CP(=O)(O)CCC(N)C(=O)O (stereo not shown) [(B-13.3), glufosinate-ammonium] | – | 0 | – |
| COc1ccccc1C(=O)NS(=O)(=O)c1ccc(C(=O)NC2CC2)cc1 [(D-62), N-{[4-(cyclopropylcarbamoyl)phenyl]-sulfonyl}-2-methoxybenzamide] | 0 | – | – |
